Experiment [1] has as its target BRM (Homo sapiens, UniProt P51531). Description: ATPase catalytic activity assay of BRM (ADP-Glo). It is filed as biochemical. A digest of the protocol:
(§1)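 ATPase activity of BRG-1 or BRM was read by ADP-Glo. Residual ATP was depleted (40 min, room temperature), then ADP was converted to ATP (60 min, room temperature) and measured as luciferase luminescence.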
(In general: In ADP-Glo the light output rises with the ADP produced.)

Experiment [2] deals with BRG-1 (Homo sapiens, UniProt P51532). Description: ATPase catalytic activity assay of BRG-1 (ADP-Glo). It is filed as biochemical. Particulars: ATPase catalytic activity, ADP-Glo; for Emax: read-out: BRG1 Max % Inhibition. A digest of the protocol:
as §1

[3] abbreviates: 30 nM BRM, 400 μM ATP, read-out: BRM IC50 (μM)*.
Setting [4] is: 30 nM BRG-1, 400 μM ATP, read-out: BRG1 IC50 (μM)*.

Read-outs that look alike come from different tables or passages of the source.

Data on 21 molecules can be found in patent publication US12685735B2 (Foghorn Therapeutics Inc., priority 2020, dated 2026).

Chain of BRG-1 (P51532 whole entry): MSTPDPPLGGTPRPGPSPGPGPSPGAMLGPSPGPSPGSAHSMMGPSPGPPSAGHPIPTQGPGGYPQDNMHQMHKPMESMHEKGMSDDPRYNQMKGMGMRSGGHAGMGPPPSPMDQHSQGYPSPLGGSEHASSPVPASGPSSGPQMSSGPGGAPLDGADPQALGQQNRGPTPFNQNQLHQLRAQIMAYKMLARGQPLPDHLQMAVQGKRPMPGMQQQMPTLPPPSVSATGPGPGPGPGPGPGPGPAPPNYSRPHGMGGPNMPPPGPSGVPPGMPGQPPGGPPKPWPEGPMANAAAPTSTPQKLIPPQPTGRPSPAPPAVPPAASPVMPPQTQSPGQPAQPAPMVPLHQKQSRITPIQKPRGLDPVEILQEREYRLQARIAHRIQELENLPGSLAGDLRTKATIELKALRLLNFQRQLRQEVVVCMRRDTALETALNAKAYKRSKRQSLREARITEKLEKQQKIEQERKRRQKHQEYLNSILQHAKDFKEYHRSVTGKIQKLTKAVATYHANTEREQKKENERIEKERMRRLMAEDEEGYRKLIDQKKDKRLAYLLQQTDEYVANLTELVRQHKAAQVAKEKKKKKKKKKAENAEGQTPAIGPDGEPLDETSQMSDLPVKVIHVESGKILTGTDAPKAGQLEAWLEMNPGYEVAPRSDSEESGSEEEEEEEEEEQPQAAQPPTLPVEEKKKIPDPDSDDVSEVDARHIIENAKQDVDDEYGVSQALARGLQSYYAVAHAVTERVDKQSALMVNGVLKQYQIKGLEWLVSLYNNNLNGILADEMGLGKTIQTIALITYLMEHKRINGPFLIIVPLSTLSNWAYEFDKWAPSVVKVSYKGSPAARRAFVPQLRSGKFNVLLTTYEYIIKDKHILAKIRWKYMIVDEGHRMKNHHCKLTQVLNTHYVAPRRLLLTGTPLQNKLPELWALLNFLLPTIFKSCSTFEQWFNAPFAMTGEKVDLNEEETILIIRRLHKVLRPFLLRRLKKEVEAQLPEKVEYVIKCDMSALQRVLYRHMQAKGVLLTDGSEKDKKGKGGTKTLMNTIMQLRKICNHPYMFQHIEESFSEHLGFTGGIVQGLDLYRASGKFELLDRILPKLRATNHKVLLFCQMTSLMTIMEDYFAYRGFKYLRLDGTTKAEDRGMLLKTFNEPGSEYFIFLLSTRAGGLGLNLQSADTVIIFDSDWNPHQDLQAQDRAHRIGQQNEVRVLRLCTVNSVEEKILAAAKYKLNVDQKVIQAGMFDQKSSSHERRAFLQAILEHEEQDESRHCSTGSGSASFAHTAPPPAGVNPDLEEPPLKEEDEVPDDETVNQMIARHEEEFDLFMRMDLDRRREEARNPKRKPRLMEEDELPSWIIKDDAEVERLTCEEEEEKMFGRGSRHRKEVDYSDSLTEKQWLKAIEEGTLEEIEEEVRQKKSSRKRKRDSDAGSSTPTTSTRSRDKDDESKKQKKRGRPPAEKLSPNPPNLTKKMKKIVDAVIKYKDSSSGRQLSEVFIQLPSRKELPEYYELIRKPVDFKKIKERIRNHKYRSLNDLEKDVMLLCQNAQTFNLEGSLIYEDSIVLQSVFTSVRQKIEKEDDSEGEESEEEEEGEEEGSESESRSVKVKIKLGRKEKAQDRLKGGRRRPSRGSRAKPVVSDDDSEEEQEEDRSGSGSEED
Chain of BRM (P51531 whole entry): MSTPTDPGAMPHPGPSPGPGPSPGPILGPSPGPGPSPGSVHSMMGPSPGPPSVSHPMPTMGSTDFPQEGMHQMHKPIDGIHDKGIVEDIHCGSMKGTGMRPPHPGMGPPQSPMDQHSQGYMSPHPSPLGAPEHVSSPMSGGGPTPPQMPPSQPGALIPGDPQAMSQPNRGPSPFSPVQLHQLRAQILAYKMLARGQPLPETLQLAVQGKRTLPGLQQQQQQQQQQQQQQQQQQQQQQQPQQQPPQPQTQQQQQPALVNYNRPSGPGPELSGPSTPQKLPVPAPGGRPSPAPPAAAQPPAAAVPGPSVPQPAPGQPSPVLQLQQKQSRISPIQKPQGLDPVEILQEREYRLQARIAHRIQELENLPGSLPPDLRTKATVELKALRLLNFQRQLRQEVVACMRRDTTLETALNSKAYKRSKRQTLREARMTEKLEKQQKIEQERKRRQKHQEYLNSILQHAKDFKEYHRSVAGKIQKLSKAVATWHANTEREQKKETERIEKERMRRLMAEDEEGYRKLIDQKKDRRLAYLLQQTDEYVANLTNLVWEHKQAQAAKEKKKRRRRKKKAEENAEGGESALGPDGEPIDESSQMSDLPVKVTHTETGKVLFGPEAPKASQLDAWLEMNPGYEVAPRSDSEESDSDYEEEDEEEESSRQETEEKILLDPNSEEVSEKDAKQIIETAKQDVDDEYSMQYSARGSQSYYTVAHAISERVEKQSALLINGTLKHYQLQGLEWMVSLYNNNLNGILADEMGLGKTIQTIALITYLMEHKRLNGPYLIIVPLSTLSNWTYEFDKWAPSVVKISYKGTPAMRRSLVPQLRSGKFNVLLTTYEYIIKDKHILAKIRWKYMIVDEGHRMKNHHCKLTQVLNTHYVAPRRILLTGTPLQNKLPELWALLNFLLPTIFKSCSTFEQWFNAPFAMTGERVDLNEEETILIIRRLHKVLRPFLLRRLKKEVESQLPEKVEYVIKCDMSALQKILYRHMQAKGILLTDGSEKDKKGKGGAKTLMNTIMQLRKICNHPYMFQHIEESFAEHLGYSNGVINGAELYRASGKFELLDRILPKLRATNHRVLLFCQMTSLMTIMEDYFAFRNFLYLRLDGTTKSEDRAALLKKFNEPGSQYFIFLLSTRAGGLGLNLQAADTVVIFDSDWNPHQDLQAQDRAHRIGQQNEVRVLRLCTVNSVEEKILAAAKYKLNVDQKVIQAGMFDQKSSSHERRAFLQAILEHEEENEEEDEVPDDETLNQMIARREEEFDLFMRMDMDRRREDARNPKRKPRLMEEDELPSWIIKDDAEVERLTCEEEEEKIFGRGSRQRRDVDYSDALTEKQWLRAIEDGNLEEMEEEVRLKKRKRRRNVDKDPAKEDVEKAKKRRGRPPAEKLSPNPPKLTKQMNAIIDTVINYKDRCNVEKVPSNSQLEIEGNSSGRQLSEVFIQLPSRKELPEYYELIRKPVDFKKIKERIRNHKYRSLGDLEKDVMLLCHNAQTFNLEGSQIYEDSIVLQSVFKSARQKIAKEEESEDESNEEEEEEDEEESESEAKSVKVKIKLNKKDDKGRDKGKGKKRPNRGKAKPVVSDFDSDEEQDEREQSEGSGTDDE

As a reminder, the IC50 is the concentration that gives 50% inhibition. Turning to `CC(C)(CN)c1cccc(C(=O)NCC(=O)Nc2nc(-c3cccc(-c4cc(C#N)cc(C#N)c4)c3)cs2)c1` [Compound 50, 3-(1-amino-2-methylpropan-2-yl)-N-(2-((4-(3′,5′-dicyano-[1,1′-biphenyl]-3-yl)thiazol-2-yl)amino)-2-oxoethyl)benzamide], in experiment [1], the “BRM Max % Inhibition” value is given as over 90%. Moreover, the half-maximal inhibitory concentration (IC50) fell in the range of 0.1 to 1 µM in experiment [1] (read-out: BRM IC50 (μM)*) and 1 to 5 µM in experiment [2] (read-out: BRG1 IC50 (μM)*). Also, in experiment [2], the Emax is over 70%.

Take `CC(C)S(=O)(=O)c1cccc(C(=O)NCC(=O)Nc2nc(-c3cccc(-c4ccnc(N)c4)c3)cs2)c1` [Compound 22, N-(2-((4-(3-(2-aminopyridin-4-yl)phenyl)thiazol-2-yl)amino)-2-oxoethyl)-3-(isopropylsulfonyl)benzamide]: the “BRM Max % Inhibition” value in experiment [1] is given as over 95%. Moreover, the IC50 in experiment [1] (BRM IC50 (μM)*) is under 0.1 µM; in experiment [2] (BRG1 IC50 (μM)*) it was 0.1 to 1 µM.

On to `CC1(C#N)CCOc2ccc(C(=O)NCC(=O)Nc3nc(-c4cccc([C@@H]5CC5(F)F)c4)cs3)cc21` (stereo in doubt) [Compound 429, (S)-4-cyano-N-(2-((4-(3-((S)-2,2-difluorocyclopropyl)phenyl)thiazol-2-yl)amino)-2-oxoethyl)-4-methylchromane-6-carboxamide], for which the “BRM Max % Inhibition” value in experiment [1] (30 nM BRM, 400 μM ATP) is listed as over 95%. Besides, the half-maximal inhibitory concentration (IC50) was under 0.1 µM in experiment [1] (setting [3]) and 1 to 5 µM in experiment [2] (setting [4]). Moreover, in experiment [2] (30 nM BRG-1, 400 μM ATP), the Emax was over 95%.

On to `C[C@@H]1CN(c2cccc(-c3csc(NC(=O)CNC(=O)c4cccc([C@]5(F)C[C@H](O)C5)c4)n3)c2)C[C@H](C)O1` [Compound 150, N-(2-((4-(3-((cis)-2,6-dimethylmorpholino)phenyl)thiazol-2-yl)amino)-2-oxoethyl)-3-((1r,3r)-1-fluoro-3-hydroxycyclobutyl)benzamide], for which, in experiment [1], the “BRM Max % Inhibition” value was over 95%. Also, the 50% inhibitory concentration (IC50) in experiment [1] (read-out: BRM IC50 (μM)*) is under 0.1 µM; in experiment [2] (read-out: BRG1 IC50 (μM)*), 0.1 to 1 µM. Further, the Emax in experiment [2] is over 90%.

On to `C[C@@]1(CO)CCc2c(C(=O)NCC(=O)Nc3nc(-c4cccc(-c5ccncc5)c4)cs3)cccc21` [Compound 197], for which the IC50 in experiment [1] (read-out: BRM IC50 (μM)*) is 1 to 5 µM; in experiment [2] (read-out: BRG1 IC50 (μM)*), over 5 µM. Further, the Emax in experiment [2] was under 30%.

As to `COC(=O)N1CCC[C@@H](c2csc(NC(=O)CNC(=O)c3ccc4c(c3)[C@@](C)(C#N)COC4)n2)C1` (stereo in doubt) [Compound 354, methyl (R)-3-(2-(2-((S)-4-cyano-4-methylisochromane-6-carboxamido)acetamido)thiazol-4-yl)piperidine-1-carboxylate], the “BRM Max % Inhibition” value in experiment [1] is given as over 95%. In addition, the IC50 in experiment [1] (read-out: BRM IC50 (μM)*) and in experiment [2] (read-out: BRG1 IC50 (μM)*) was 0.1 to 1 µM in each case. Further, the Emax in experiment [2] is over 95%.

`C[C@@]1(C#N)COCc2ccc(C(=O)NCC(=O)Nc3nc(-c4cc(F)c5c(c4)OCC5)cs3)cc21` [Compound 353, (R)-4-cyano-N-(2-((4-(4-fluoro-2,3-dihydrobenzofuran-6-yl)thiazol-2-yl)amino)-2-oxoethyl)-4-methylisochromane-6-carboxamide]: the “BRM Max % Inhibition” value in experiment [1] is reported as over 95%. The IC50 in experiment [1] (read-out: BRM IC50 (μM)*) and in experiment [2] (read-out: BRG1 IC50 (μM)*) was under 0.1 µM throughout. The Emax in experiment [2] was over 95%.

Take `C[C@@H]1CN(c2cccc(-c3csc(NC(=O)CNC(=O)c4ccc5c(c4)C(C)(C#N)CO5)n3)c2)C[C@H](C)O1` (stereo in doubt) [Compound 417, (R)-3-cyano-N-(2-((4-(3-((cis)-2,6-dimethylmorpholino)phenyl)thiazol-2-yl)amino)-2-oxoethyl)-3-methyl-2,3-dihydrobenzofuran-5-carboxamide]: the “BRM Max % Inhibition” value in experiment [1] (30 nM BRM, 400 μM ATP) is reported as over 95%. Moreover, the IC50 is under 0.1 µM in experiment [1] (setting [3]) and 0.1 to 1 µM in experiment [2] (setting [4]). Besides, in experiment [2] (30 nM BRG-1, 400 μM ATP), the Emax is over 95%.

Consider `C[C@@H]1CN(c2cccc(-c3csc(NC(=O)CNC(=O)c4ccc5c(c4)[C@H](C#N)CCO5)n3)n2)C[C@H](C)O1` (racemic) [Compound 405, rac-4-cyano-N-(2-((4-(6-((cis)-2,6-dimethylmorpholino)pyridin-2-yl)thiazol-2-yl)amino)-2-oxoethyl)chromane-6-carboxamide], for which the “BRM Max % Inhibition” value in experiment [1] was over 90%. The IC50 in experiment [1] (read-out: BRM IC50 (μM)*) lay in the range of 0.1 to 1 µM; in experiment [2] (read-out: BRG1 IC50 (μM)*) it was 1 to 5 µM. The Emax in experiment [2] is over 90%.

Turning to `CN(C)Cc1cc(-c2cccc(-c3csc(NC(=O)CNC(=O)c4cccc(C(C)(C)CN)c4)n3)c2)ccn1` [Compound 61, 3-(1-amino-2-methylpropan-2-yl)-N-(2-((4-(3-(2-((dimethylamino)methyl)pyridin-4-yl)phenyl)thiazol-2-yl)amino)-2-oxoethyl)benzamide], the “BRM Max % Inhibition” value in experiment [1] is over 90%. Moreover, the concentration for half-maximal inhibition (IC50) in experiment [1] (read-out: BRM IC50 (μM)*) was in the range of 0.1 to 1 µM; in experiment [2] (read-out: BRG1 IC50 (μM)*) it was 1 to 5 µM. Further, the Emax in experiment [2] was over 60%.

Turning to `C[C@@H]1CN(c2cccc(-c3csc(NC(=O)CNC(=O)c4cccc(C5(C)COC5)c4)n3)n2)C[C@H](C)O1` [Compound 187, N-[2-[[4-[6-[(cis)-2,6-dimethylmorpholin-4-yl]-2-pyridyl]thiazol-2-yl]amino]-2-oxo-ethyl]-3-(3-methyloxetan-3-yl)benzamide], the “BRM Max % Inhibition” value in experiment [1] was over 95%. Also, the half-maximal inhibitory concentration (IC50) in experiment [1] (read-out: BRM IC50 (μM)*) was under 0.1 µM; in experiment [2] (read-out: BRG1 IC50 (μM)*), 0.1 to 1 µM. Moreover, the Emax in experiment [2] was over 70%.

Turning to `Cc1nccc(-c2cccc(-c3csc(NC(=O)CNC(=O)c4ccc5c(c4)[C@@](C)(C#N)CC5)n3)n2)n1` [Compound 268, (3S)-3-cyano-3-methyl-N-[2-[[4-[6-(2-methylpyrimidin-4-yl)-2-pyridyl]thiazol-2-yl]amino]-2-oxo-ethyl]indane-5-carboxamide], the “BRM Max % Inhibition” value in experiment [1] was over 80%. The results for the IC50 in experiment [1] (read-out: BRM IC50 (μM)*) and in experiment [2] (read-out: BRG1 IC50 (μM)*) were 0.1 to 1 µM and 1 to 5 µM, respectively. Further, the Emax in experiment [2] was over 50%.

For the molecule `Cc1cc(-c2cccc(-c3csc(NC(=O)CNC(=O)c4cccc(C(C)(C)CN)c4)n3)c2)ncn1` [Compound 98], the “BRM Max % Inhibition” value in experiment [1] is listed as over 95%. Further, the IC50 in experiment [1] (read-out: BRM IC50 (μM)*) lay within 0.1 to 1 µM; in experiment [2] (read-out: BRG1 IC50 (μM)*), 1 to 5 µM. Moreover, the Emax in experiment [2] was over 70%.

Regarding `COc1cc(-c2csc(NC(=O)CNC(=O)c3ccc4c(c3)[C@](C)(C#N)COC4)n2)ccc1F` [Compound 399, (R)-4-cyano-N-(2-((4-(4-fluoro-3-methoxyphenyl)thiazol-2-yl)amino)-2-oxoethyl)-4-methylisochromane-6-carboxamide], in experiment [1], the “BRM Max % Inhibition” value was over 95%. The IC50 in experiment [1] (read-out: BRM IC50 (μM)*) was under 0.1 µM; in experiment [2] (read-out: BRG1 IC50 (μM)*), 0.1 to 1 µM. Moreover, the Emax in experiment [2] was over 95%.

Consider `C[C@@]1(F)COCc2ccc(C(=O)NCC(=O)Nc3nc(-c4cc(F)cc(C#N)c4)cs3)cc21` [Compound 314, (S)-N-(2-((4-(3-cyano-5-fluorophenyl)thiazol-2-yl)amino)-2-oxoethyl)-4-fluoro-4-methylisochromane-6-carboxamide], for which the “BRM Max % Inhibition” value in experiment [1] is on record as over 90%. Also, the results for the concentration for half-maximal inhibition (IC50) in experiment [1] (read-out: BRM IC50 (μM)*) and in experiment [2] (read-out: BRG1 IC50 (μM)*) were under 0.1 µM and 0.1 to 1 µM, respectively. Further, the Emax in experiment [2] is over 90%.

Regarding `CN1C[C@@](C)(C#N)c2cc(C(=O)NCC(=O)Nc3nc(-c4cc(F)cc(N5CCC5)c4)cs3)ccc21` [Compound 289, (S)-N-(2-((4-(3-(azetidin-1-yl)-5-fluorophenyl)thiazol-2-yl)amino)-2-oxoethyl)-3-cyano-1,3-dimethylindoline-5-carboxamide], in experiment [1], the “BRM Max % Inhibition” value is over 95%. Further, the concentration for half-maximal inhibition (IC50) in experiment [1] (read-out: BRM IC50 (μM)*) and in experiment [2] (read-out: BRG1 IC50 (μM)*) was under 0.1 µM throughout. Further, the Emax in experiment [2] was over 95%.

As to `Cc1cc(C)c(C(C)(C)CN)cc1C(=O)NCC(=O)Nc1nc(-c2cccc(-c3ccncc3)c2)cs1` [Compound 89], the “BRM Max % Inhibition” value in experiment [1] is over 80%. In addition, the IC50 was 1 to 5 µM in experiment [1] (read-out: BRM IC50 (μM)*) and over 5 µM in experiment [2] (read-out: BRG1 IC50 (μM)*). Moreover, the Emax in experiment [2] was over 30%.

In the case of `Cn1ccc(-c2cccc(-c3csc(NC(=O)CNC(=O)c4ccc5c(c4)[C@](C)(CO)CC5)n3)n2)n1` [Compound 265, (3R)-3-(hydroxymethyl)-3-methyl-N-[2-[[4-[6-(1-methylpyrazol-3-yl)-2-pyridyl]thiazol-2-yl]amino]-2-oxo-ethyl]indane-5-carboxamide], the “BRM Max % Inhibition” value in experiment [1] is listed as over 70%. Also, the 50% inhibitory concentration (IC50) in experiment [1] (read-out: BRM IC50 (μM)*) is 1 to 5 µM; in experiment [2] (read-out: BRG1 IC50 (μM)*) it was over 5 µM. Besides, the Emax in experiment [2] is over 30%.

As for `C[C@@H]1CN(c2cccc(-c3csc(NC(=O)CNC(=O)c4cccc5c4OCC[C@@]5(C)CO)n3)c2)C[C@H](C)O1` [Compound 138, (R)-N-(2-((4-(3-((cis)-2,6-dimethylmorpholino)phenyl)thiazol-2-yl)amino)-2-oxoethyl)-4-(hydroxymethyl)-4-methylchroman-8-carboxamide], the “BRM Max % Inhibition” value in experiment [1] is given as over 90%. Besides, the values for the IC50 in experiment [1] (read-out: BRM IC50 (μM)*) and in experiment [2] (read-out: BRG1 IC50 (μM)*) were 0.1 to 1 µM and over 5 µM, respectively. The Emax in experiment [2] was over 50%.

`COC(=O)N1CCCC(c2csc(NC(=O)CNC(=O)c3ccc4c(c3)[C@](C)(F)COC4)n2)C1` (stereo in doubt) [Compound 302, methyl (S)-3-(2-(2-((S)-4-fluoro-4-methylisochromane-6-carboxamido)acetamido)thiazol-4-yl)piperidine-1-carboxylate]: in experiment [1], the “BRM Max % Inhibition” value was over 95%. For the same molecule, the 50% inhibitory concentration (IC50) was under 0.1 µM in experiment [1] (read-out: BRM IC50 (μM)*) and 0.1 to 1 µM in experiment [2] (read-out: BRG1 IC50 (μM)*). The Emax in experiment [2] was over 95%.

`COC[C@H](NC(=O)c1cccc(C(C)(C)CN)c1)C(=O)Nc1nc(-c2cccc(-c3ccnc(C)c3)c2)cs1` [Compound 68, (S)-3-(1-amino-2-methylpropan-2-yl)-N-(3-methoxy-1-((4-(3-(2-methylpyridin-4-yl)phenyl)thiazol-2-yl)amino)-1-oxopropan-2-yl)benzamide]: in experiment [1], the “BRM Max % Inhibition” value is over 95%. Also, the 50% inhibitory concentration (IC50) in experiment [1] (read-out: BRM IC50 (μM)*) and in experiment [2] (read-out: BRG1 IC50 (μM)*) was 0.1 to 1 µM in each case. The Emax in experiment [2] is over 90%.
